Experiments:
Format in all cases: in vivo
Plutella xylostella = Plutella xylostella (diamond back moth), artificial diet; details: 120 h, application rate 200 ppm, L2 larvae, 5 days after infestation, read-out: effect in at least one of the two categories (mortality or growth inhibition)
How it was run: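 Artificial diet in 24-well plates treated with aqueous test solutions made from 10'000 ppm DMSO stocks, dried, then infested with L2 larvae (10 to 15 per well). Mortality and growth inhibition scored against untreated samples 5 days after infestation; activity cut-off at least 80% in either category at 200 ppm.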

Myzus persicae = Myzus persicae (green peach aphid): feeding/contact activity; details: 144 h, application rate 200 ppm, aphid population of mixed ages, 6 days after infestation, read-out: mortality
Experimental: Sunflower leaf discs were placed onto agar in a 24-well microtiter plate and sprayed with aqueous test solutions prepared from 10'000 ppm DMSO stock solutions. After drying, the leaf discs were infested with an aphid population of mixed ages. The samples were assessed for mortality 6 days after infestation.

Spodoptera littoralis [1] = assay: Spodoptera littoralis (Egyptian cotton leaf worm), uptake by lettuce roots from agar; details: 144 h, read-out: effect in at least one of the three categories (mortality, anti-feeding, or growth inhibition)
How it was run: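 Compound from 10'000 ppm DMSO stocks was mixed into agar, and lettuce grew on it for 7 days to take it up via roots. Cut leaves were infested with Spodoptera eggs; mortality, anti-feedant effect and growth inhibition scored 6 days later versus untreated samples.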

Diabrotica balteata = Diabrotica balteata (corn root worm), sprayed maize sprouts; details: 96 h, application rate 200 ppm, L2 larvae, 4 days after infestation, read-out: effect in at least one of the two categories (mortality or growth inhibition)
How it was run: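 Maize sprouts on agar sprayed with aqueous dilutions of DMSO stocks, dried, then infested with L2 larvae (6–10 per well). Mortality and growth inhibition scored against untreated controls 4 days after infestation, at 200 ppm application rate.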

Euschistus heros = Euschistus heros (neotropical brown stink bug), sprayed soybean leaves; details: 120 h, application rate 200 ppm, N2 nymphs, 5 days after infestation, read-out: effect in at least one of the two categories (mortality or growth inhibition)
How it was run: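 Soybean leaves on agar sprayed with aqueous dilutions of DMSO stocks, dried, then infested with N2 nymphs. Mortality and growth inhibition scored against untreated samples 5 days after infestation; application rate 200 ppm.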

Spodoptera littoralis [2] = assay: Spodoptera littoralis (Egyptian cotton leaf worm), sprayed cotton leaf discs; details: foliar, 72 h, application rate 200 ppm, L1 larvae, 3 days after infestation, read-out: control (mortality, anti-feeding effect, growth inhibition)
How it was run: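 Cotton leaf discs on agar sprayed with aqueous test solutions made from 10'000 ppm DMSO stock; after drying, infested with five L1 larvae. Mortality, anti-feeding and growth inhibition scored versus untreated samples 3 days after infestation; control counted when any category exceeds untreated.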

Thrips tabaci = Thrips tabaci (onion thrips): feeding/contact activity; details: 144 h, application rate 200 ppm, Thrips population of mixed ages, 6 days after infestation, read-out: mortality
Experimental: Sunflower leaf discs were placed on agar in 24-well microtiter plates and sprayed with aqueous test solutions prepared from 10'000 ppm DMSO stock solutions. After drying the leaf discs were infested with a Thrips population of mixed ages. The samples were assessed for mortality 6 days after infestation.

Tetranychus urticae = Tetranychus urticae (two-spotted spider mite): feeding/contact activity; details: 192 h, application rate 200 ppm, mixed population (mobile stages), 8 days after infestation, read-out: mortality
Experimental: Bean leaf discs on agar in 24-well microtiter plates were sprayed with aqueous test solutions prepared from 10'000 ppm DMSO stock solutions. After drying the leaf discs were infested with a mite population of mixed ages. The samples were assessed for mortality on mixed population (mobile stages) 8 days after infestation.

CNS(=O)(=O)N1C[C@@H](NC(=O)c2ccc(C3=NO[C@@](c4cc(Cl)cc(Cl)c4)(C(F)(F)F)C3)cc2C)CO1 [Compound A139, 4-[(5S)-5-(3,5-dichlorophenyl)-5-(trifluoromethyl)-4H-isoxazol-3-yl]-2-methyl-N-[(4R)-2-(methylsulfamoyl)isoxazolidin-4-yl]benzamide]
≥ 80%: percent effect (mortality or growth inhibition) at 200 ppm (Plutella xylostella) | mortality at 200 ppm (Myzus persicae) | percent control (mortality, anti-feedant effect or growth inhibition) at 12.5 ppm (Spodoptera littoralis [1]) | percent effect (mortality or growth inhibition) at 200 ppm (Diabrotica balteata) | percent effect (mortality or growth inhibition) at 200 ppm (Euschistus heros) | mortality at 200 ppm (Spodoptera littoralis [2]) | mortality at 200 ppm (Thrips tabaci) | mortality at 200 ppm (Tetranychus urticae)

Cc1cc(C2=NO[C@@](c3cc(Cl)c(Cl)c(Cl)c3)(C(F)(F)F)C2)ccc1C(=O)N[C@H]1CON(S(C)(=O)=O)C1 [Compound A36]
≥ 80%: percent effect (mortality or growth inhibition) at 200 ppm (Plutella xylostella) | mortality at 200 ppm (Myzus persicae) | percent control (mortality, anti-feedant effect or growth inhibition) at 12.5 ppm (Spodoptera littoralis [1]) | percent effect (mortality or growth inhibition) at 200 ppm (Diabrotica balteata) | percent effect (mortality or growth inhibition) at 200 ppm (Euschistus heros) | mortality at 200 ppm (Spodoptera littoralis [2]) | mortality at 200 ppm (Thrips tabaci) | mortality at 200 ppm (Tetranychus urticae)

Cc1cc(C2=NO[C@@](c3cc(Cl)c(F)c(Cl)c3)(C(F)(F)F)C2)ccc1C(=O)NC1CON(S(=O)(=O)N(C)C)C1 (stereo partly shown) [Compound A10]
≥ 80%: percent effect (mortality or growth inhibition) at 200 ppm (Plutella xylostella) | mortality at 200 ppm (Myzus persicae) | percent control (mortality, anti-feedant effect or growth inhibition) at 12.5 ppm (Spodoptera littoralis [1]) | percent effect (mortality or growth inhibition) at 200 ppm (Diabrotica balteata) | percent effect (mortality or growth inhibition) at 200 ppm (Euschistus heros) | mortality at 200 ppm (Spodoptera littoralis [2]) | mortality at 200 ppm (Thrips tabaci) | mortality at 200 ppm (Tetranychus urticae)

CCNS(=O)(=O)N1C[C@@H](NC(=O)c2ccc(C3=NO[C@@](c4cc(Cl)c(Cl)c(Cl)c4)(C(F)(F)F)C3)cc2C)CO1 [Compound A136, N-[(4R)-2-(ethylsulfamoyl)isoxazolidin-4-yl]-2-methyl-4-[(5S)-5-(3,4,5-trichlorophenyl)-5-(trifluoromethyl)-4H-isoxazol-3-yl]benzamide]
≥ 80%: percent effect (mortality or growth inhibition) at 200 ppm (Plutella xylostella) | mortality at 200 ppm (Myzus persicae) | percent control (mortality, anti-feedant effect or growth inhibition) at 12.5 ppm (Spodoptera littoralis [1]) | percent effect (mortality or growth inhibition) at 200 ppm (Diabrotica balteata) | percent effect (mortality or growth inhibition) at 200 ppm (Euschistus heros) | mortality at 200 ppm (Spodoptera littoralis [2]) | mortality at 200 ppm (Thrips tabaci) | mortality at 200 ppm (Tetranychus urticae)

Cc1cc(C2=NO[C@@](c3cc(Cl)cc(Cl)c3)(C(F)(F)F)C2)ccc1C(=O)N[C@H]1CON(S(=O)(=O)N(C)C)C1 [Compound A39]
≥ 80%: percent effect (mortality or growth inhibition) at 200 ppm (Plutella xylostella) | mortality at 200 ppm (Myzus persicae) | percent control (mortality, anti-feedant effect or growth inhibition) at 12.5 ppm (Spodoptera littoralis [1]) | percent effect (mortality or growth inhibition) at 200 ppm (Diabrotica balteata) | percent effect (mortality or growth inhibition) at 200 ppm (Euschistus heros) | mortality at 200 ppm (Spodoptera littoralis [2]) | mortality at 200 ppm (Thrips tabaci) | mortality at 200 ppm (Tetranychus urticae)

Cc1cc(C2=NO[C@@](c3cccc(C(F)(F)F)c3)(C(F)(F)F)C2)ccc1C(=O)N[C@H]1CON(S(C)(=O)=O)C1 [Compound A159]
≥ 80%: percent effect (mortality or growth inhibition) at 200 ppm (Plutella xylostella) | mortality at 200 ppm (Myzus persicae) | percent effect (mortality, anti-feeding or growth inhibition) at 12.5 ppm (Spodoptera littoralis [1]; test rate 12.5 ppm, eggs, 6 days after infestation) | percent effect (mortality or growth inhibition) at 200 ppm (Diabrotica balteata) | percent effect (mortality or growth inhibition) at 200 ppm (Euschistus heros) | mortality at 200 ppm (Spodoptera littoralis [2]) | mortality at 200 ppm (Thrips tabaci) | mortality at 200 ppm (Tetranychus urticae)

CS(=O)(=O)N1C[C@@H](NC(=O)c2ccc(C3=NO[C@@](c4cc(Cl)c(F)c(Cl)c4)(C(F)(F)F)C3)cc2Cl)CO1 [Compound A144, 2-chloro-4-[(5S)-5-(3,5-dichloro-4-fluoro-phenyl)-5-(trifluoromethyl)-4H-isoxazol-3-yl]-N-[(4R)-2-methylsulfonylisoxazolidin-4-yl]benzamide]
≥ 80%: percent effect (mortality or growth inhibition) at 200 ppm (Plutella xylostella) | mortality at 200 ppm (Myzus persicae) | percent control (mortality, anti-feedant effect or growth inhibition) at 12.5 ppm (Spodoptera littoralis [1]) | percent effect (mortality or growth inhibition) at 200 ppm (Diabrotica balteata) | percent effect (mortality or growth inhibition) at 200 ppm (Euschistus heros) | mortality at 200 ppm (Spodoptera littoralis [2]) | mortality at 200 ppm (Thrips tabaci) | mortality at 200 ppm (Tetranychus urticae)

Cc1cc(C2=NO[C@@](c3cc(Cl)c(F)c(Cl)c3)(C(F)(F)F)C2)ccc1C(=O)NC1CON(S(=O)(=O)N(C)C#N)C1 (stereo partly drawn) [Compound A81, N-[2-[cyano(methyl)sulfamoyl]isoxazolidin-4-yl]-4-[(5S)-5-(3,5-dichloro-4-fluoro-phenyl)-5-(trifluoromethyl)-4H-isoxazol-3-yl]-2-methyl-benzamide]
≥ 80%: percent effect (mortality or growth inhibition) at 200 ppm (Plutella xylostella) | mortality at 200 ppm (Myzus persicae) | percent control (mortality, anti-feedant effect or growth inhibition) at 12.5 ppm (Spodoptera littoralis [1]) | percent effect (mortality or growth inhibition) at 200 ppm (Diabrotica balteata) | percent effect (mortality or growth inhibition) at 200 ppm (Euschistus heros) | mortality at 200 ppm (Spodoptera littoralis [2]) | mortality at 200 ppm (Thrips tabaci) | mortality at 200 ppm (Tetranychus urticae)

CCNS(=O)(=O)N1CC(NC(=O)c2ccc(C3=NO[C@@](c4cc(Cl)c(F)c(Cl)c4)(C(F)(F)F)C3)cc2C)CO1 (stereo partly shown) [Compound A95]
≥ 80%: percent effect (mortality or growth inhibition) at 200 ppm (Plutella xylostella) | mortality at 200 ppm (Myzus persicae) | percent control (mortality, anti-feedant effect or growth inhibition) at 12.5 ppm (Spodoptera littoralis [1]) | percent effect (mortality or growth inhibition) at 200 ppm (Diabrotica balteata) | percent effect (mortality or growth inhibition) at 200 ppm (Euschistus heros) | mortality at 200 ppm (Spodoptera littoralis [2]) | mortality at 200 ppm (Thrips tabaci) | mortality at 200 ppm (Tetranychus urticae)

CCN(CC)S(=O)(=O)N1CC(NC(=O)c2ccc(C3=NO[C@@](c4cc(Cl)c(F)c(Cl)c4)(C(F)(F)F)C3)cc2C)CO1 (stereo partly drawn) [Compound A98, 4-[(5S)-5-(3,5-dichloro-4-fluoro-phenyl)-5-(trifluoromethyl)-4H-isoxazol-3-yl]-N-[2-(diethylsulfamoyl)isoxazolidin-4-yl]-2-methyl-benzamide]
≥ 80%: percent effect (mortality or growth inhibition) at 200 ppm (Plutella xylostella) | mortality at 200 ppm (Myzus persicae) | percent control (mortality, anti-feedant effect or growth inhibition) at 12.5 ppm (Spodoptera littoralis [1]) | percent effect (mortality or growth inhibition) at 200 ppm (Diabrotica balteata) | percent effect (mortality or growth inhibition) at 200 ppm (Euschistus heros) | mortality at 200 ppm (Spodoptera littoralis [2]) | mortality at 200 ppm (Thrips tabaci) | mortality at 200 ppm (Tetranychus urticae)

CCN(C)S(=O)(=O)N1C[C@@H](NC(=O)c2ccc(C3=NO[C@@](c4cc(Cl)cc(C(F)(F)F)c4)(C(F)(F)F)C3)cc2Cl)CO1 [Compound A130, 2-chloro-4-[(5S)-5-[3-chloro-5-(trifluoromethyl)phenyl]-5-(trifluoromethyl)-4H-isoxazol-3-yl]-N-[(4R)-2-[ethyl(methyl)sulfamoyl]isoxazolidin-4-yl]benzamide]
≥ 80%: percent effect (mortality or growth inhibition) at 200 ppm (Plutella xylostella) | mortality at 200 ppm (Myzus persicae) | percent control (mortality, anti-feedant effect or growth inhibition) at 12.5 ppm (Spodoptera littoralis [1]) | percent effect (mortality or growth inhibition) at 200 ppm (Diabrotica balteata) | percent effect (mortality or growth inhibition) at 200 ppm (Euschistus heros) | mortality at 200 ppm (Spodoptera littoralis [2]) | mortality at 200 ppm (Thrips tabaci) | mortality at 200 ppm (Tetranychus urticae)
